Reference: PubChem BioAssay (NCI)
Values joined by “and” are separate entries in the source; they are usually repeats but may differ in a detail not shown here. Identical values can stand only once.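 Five concentrations, 48 hours, 96-well plates. GI50: concentration for 50% inhibition of growth. The concentration for full growth arrest is given as TGI.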

What was measured:
Experiment in all cases: inhibition of tumour cell growth, NCI panel, 48 h
HT29 colon = test system: HT29 colon
IGROV1 ovarian = test system: IGROV1 ovarian
MCF7 breast = test system: MCF7 breast
OVCAR-5 ovarian = test system: OVCAR-5 ovarian
PC-3 prostate = test system: PC-3 prostate
RPMI-8226 leukemia = test system: RPMI-8226 leukemia
SN12C renal = test system: SN12C renal
SNB-75 CNS = test system: SNB-75 CNS
SW-620 colon = test system: SW-620 colon
UACC-62 melanoma = test system: UACC-62 melanoma

SMILES | GI50 (HT29 colon) [µM] | TGI (HT29 colon) | GI50 (IGROV1 ovarian) [µM] | TGI (IGROV1 ovarian) | GI50 (MCF7 breast) [µM] | TGI (MCF7 breast) | TGI (OVCAR-5 ovarian) [µM] | GI50 (PC-3 prostate) [µM] | TGI (PC-3 prostate) | GI50 (RPMI-8226 leukemia) | TGI (RPMI-8226 leukemia) | GI50 (SN12C renal) [µM] | TGI (SN12C renal) | GI50 (SNB-75 CNS) [µM] | TGI (SNB-75 CNS) | GI50 (SW-620 colon) | TGI (SW-620 colon) | GI50 (UACC-62 melanoma) [µM] | TGI (UACC-62 melanoma) | GI50 (OVCAR-5 ovarian) [µM]
COC1/C=C/O[C@@]2(C)Oc3c(C)c(O)c4c(O)c(cc(O)c4c3C2=O)NC(=O)/C(C)=C\C=C\[C@H](C)C(O)[C@@H](C)[C@@H](O)[C@@H](C)[C@H](OC(C)=O)[C@@H]1C (stereo partly specified) | 11.6 | 24.3 µM and 34.5 µM | 16 | 29.5 µM and 56.3 µM | 17.3 | 32.3 µM and 29.7 µM | 80.1 | 7.74 | 20.4 µM and 34 µM | 2.14 µM and 7.37 µM | 17.2 µM and 47.4 µM | 11.9 | 24.6 µM and 33.9 µM | 18.1 | 32.3 µM and 119 µM | 2.72 µM and 7.91 µM | 13.6 µM and 21.9 µM | 14.8 | 28 µM and 42.2 µM | 
COc1ccc2c(c1)O/C(=C\c1cccc(OCC(=O)Nc3nc4ccccc4s3)c1)C2=O | > 58.7 | > 100 µM | 0.121 | 0.303 µM | 14.2 | > 100 µM | > 100 | 8.46 | > 100 µM | 4.87 µM | > 100 µM | 2.82 | > 100 µM |  | > 24 µM | 38.4 µM | > 100 µM | 23.5 | > 100 µM | > 84.3
CCN(CC)c1ccc(NC(C(=O)c2ccccc2)c2ccccc2)cc1 (stereo unspecified) | 3.19 | > 100 µM | 4.31 | 18.1 µM | 2.23 | 16.6 µM | 5.26 | 3.62 | 16.8 µM | 2.61 µM | 12.3 µM |  |  | 2.24 | 10.7 µM | 2.25 µM | 5.93 µM | 1.92 | 4.09 µM | 2.24
O=C1Nc2ccc(Cl)cc2/C1=C\c1c(-c2ccc(F)cc2)nc2ccccn12 | 2.33 | 5.41 µM | 3.06 | 8.58 µM | 2.71 | 10.7 µM | 6.72 | 2.43 | 8.36 µM | 2.25 µM | 7.86 µM | 2.88 | 10.8 µM | 2.08 | 7.97 µM | 3 µM | 11.7 µM | 2.58 | 11.5 µM | 2.21
C[C@]12CC[C@H](O)CC1=CC[C@@H]1[C@@H]2CC[C@]2(C)C(=O)/C(=C/c3cccc(OCCCn4ccnc4)c3)C[C@@H]12 | 7.53 | 27 µM | 19.4 | 46.2 µM | 23.1 | 54.1 µM | 34.8 | 15.6 | 39.8 µM | 10.1 µM | 31.6 µM | 28.7 | 88.3 µM | 19.7 | 38.4 µM | 19.7 µM | 40.9 µM | 13.1 | 30 µM | 18.1
Cc1ccc(NS(=O)(=O)c2ccc(-c3cnc(C4CC4)o3)cc2)cc1 | 2.34 | 11 µM | 3.78 | 17.3 µM | 1.55 | 14.9 µM | 22.6 | 3.27 | 16.3 µM | 2.82 µM | 12.6 µM | 4.1 | 17.2 µM | 1.13 | 4.25 µM | 2.25 µM | 13.2 µM | 3.06 | 14.9 µM | 9.28
